US20070197524A1, “Fluorenes and carbazoles as ligands of the EP2 receptor” (priority 2005, published 2007)

Tests used:
cumulus-oocyte complexes = experiment: Cumulus expansion assay in vitro; format: cell-based, mice; settings: concentration of 100-200 μm; test substances compete with PGE2
Method: 2.2 Cumulus Expansion Assay in Vitro
Folliculogenesis is induced in immature female mice (strain: CD1 (ICR) from Charles River) at an age of 14-18 days by a single dose (intraperitoneal) of 10 I.U. of PMSG (Pregnant Mare Serum Gonadotropin; Sigma G-4877, Lot 68H0909). 47-50 hours after the injection, the ovaries are removed and the cumulus-oocyte complexes are removed. The cumulus complex is not yet expanded at this stage.
The cumulus-oocyte complexes are then incubated with prostaglandin E2 (PGE2) (1 μM), vehicle control (ethanol) or test substances for 20-24 hours. Medium: alpha-MEM medium with 0.1 mM IBMX, pyruvates (0.23 mM) glutamines (2 mM), pen/strep 100 IU/ml pen. and 100 μg/ml strep. and HSA (8 mg/ml). Cumulus expansion is then established through the division into four stages (according to Vanderhyden et al. Dev Biol. 1990 August; 140 (2):307-317).

[1] = molecular target: T1, human prostaglandin E2 (subtype EP2) receptor (Homo sapiens, UniProt P43116); experiment: cAMP antagonism assay (HTRF cAMP detection, in presence of PGE2); format: cell-based; settings: cAMP antagonism test
T1 construct: host or cells: cells in a cell culture plate
T1 sequence (P43116 whole entry): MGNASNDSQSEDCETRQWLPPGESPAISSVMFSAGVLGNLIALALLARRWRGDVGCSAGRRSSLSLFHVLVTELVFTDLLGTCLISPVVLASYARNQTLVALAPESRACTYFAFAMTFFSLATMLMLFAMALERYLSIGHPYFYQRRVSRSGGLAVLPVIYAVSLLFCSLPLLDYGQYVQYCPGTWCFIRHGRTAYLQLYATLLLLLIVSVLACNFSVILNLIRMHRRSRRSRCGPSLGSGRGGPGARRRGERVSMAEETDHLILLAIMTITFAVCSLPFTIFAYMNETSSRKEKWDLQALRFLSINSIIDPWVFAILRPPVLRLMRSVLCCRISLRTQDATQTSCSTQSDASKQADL
Excerpt: 1. Detection of the Antagonism of the Human Prostaglandin E2 (Subtype EP2) Receptor Signal
1.1 Principle of Detection
(§1) The binding of PGE2 to the EP2 subtype of the human PGE2 receptor induces activation of membrane-associated adenylate cyclases and leads to the formation of cAMP. In the presence of the phosphodiesterase inhibitor IBMX, cAMP which has accumulated due to this stimulation and been released by cell lysis is employed in a competitive detection method. In this assay, the cAMP in the lysate competes with cAMP-XL665 for binding of an Eu cryptate-labelled anti-cAMP antibody.
(§2) The two signals are measured in a suitable measuring instrument with a time lag, i.e. after the background fluorescence has declined.
1.2.1 Antagonism Assay (Data for Each Well of a 384-Well Plate):
(§3) The substance solutions (0.75 μl) introduced into an assay plate and 30% DMSO are dissolved in 16 μl of a KRSB+IBMX stimulation solution (1×Krebs-Ringer Bicarbonate Buffer; Sigma-Aldrich # K-4002; including 750 μM 3-isobutyl-1-methylxanthine Sigma-Aldrich # I-7018), and then 15 μl thereof are transferred into a media-free cell culture plate which has been washed with KRSB shortly beforehand.
After preincubation at room temperature (RT) for 30 minutes, 5 μl of a 4×PGE2 solution (11 nM) are added, and incubation is carried out in the presence of the agonist at RT for a further 60 min (volume: ˜20 μl) before the reaction is then stopped by adding 5 μl of lysis buffer and incubated at RT for a further 20 min (volume: ˜25 μl). The cell lysate is then transferred into a measuring plate and measured in accordance with the manufacturer's information (cyclic AMP kit Cisbio International # 62AMPPEC).

[2] = molecular target: T1, human prostaglandin E2 (subtype EP2) receptor; experiment: cAMP agonism assay (HTRF cAMP detection); format: cell-based; settings: cAMP agonism test; read-out: Agonism [ED50, μm]
Method: as §1, §2
1.2.2 Agonism Assay (Data for Each Well of a 384-Well Plate):
as §3
After incubation at room temperature (RT; volume: ˜15 μl) for 60 minutes, the reaction is then stopped by adding 5 μl of lysis buffer and incubated at RT for a further 20 min (volume: ˜20 μl). The cell lysate is then transferred into a measuring plate and measured in accordance with the manufacturer's information (cyclic AMP kit Cisbio International # 62AMPPEC).

Row | SMILES | suppression of cumulus expansion (cumulus-oocyte complexes) | IC50 [1] | EC50 [2]
1 | O=C(O)CC1c2ccccc2-c2ccc(OCCCCOc3cccc(O)c3)cc21 (racemic) [VI/3, (R/S) {2-[4-(3-Hydroxyphenoxy)butoxy]-9H-fluoren-9-yl}acetic acid] | ~50% | 6.4 µM | > 19 µM
2 | CC(=O)Nc1cccc(OCCCCOc2ccc3c(c2)C(CC(=O)O)c2ccccc2-3)c1 (racemic) [VI/4, (R/S) {2-[4-(3-Acetylaminophenoxy)butoxy]-9H-fluoren-9-yl}acetic acid] |  | > 19 µM | 6.3 µM
3 | CC(C)Oc1ccc2c(=O)c3cc(C(=O)O)ccc3oc2c1 [AH6809, reference compound] | about 20% | > 19 µM | > 19 µM
4 | CCOC(=O)Cn1c2ccccc2c2ccc(OCCCCOc3cccc(C(=O)OC)c3)cc21 [XII/5, Methyl 3-[4-(9-ethoxycarbonylmethyl-9H-carbazol-2-yloxy)butoxy]benzoate] |  | > 19 µM | 6.3 µM
5 | CC(=O)c1cccc(OCCCCOc2ccc3c4ccccc4n(CC(=O)O)c3c2)c1 [XIII/12, {2-[4-(3-acetylphenoxy)butoxy]carbazol-9-yl}acetic acid] |  | 6.3 µM | > 19 µM
6 | O=C(O)Cn1c2ccccc2c2ccc(OCCCCOc3ccc(-n4cccc4)cc3)cc21 [XIII/22, {2-[4-(4-pyrrol-1-ylphenoxy)butoxy]carbazol-9-yl}acetic acid] |  | 1.2 µM | > 19 µM
7 | O=C(O)CCn1c2ccccc2c2ccc(OCCCCOc3ccc4c(c3)CCC(=O)N4)cc21 [XIII/67, 3-{2-[4-(2-oxo-1,2,3,4-tetrahydroquinolin-6-yloxy)butoxy]carbazol-9-yl}propionic acid] |  | 3.2 µM | > 19 µM
8 | O=C(O)Cn1c2ccccc2c2ccc(OCCCOc3ccccc3)cc21 [XIII/85, [2-(3-phenoxypropoxy)carbazol-9-yl]acetic acid] |  | 6.7 µM | > 19 µM
9 | O=C(O)Cn1c2ccccc2c2ccc(OCCCCCOc3ccccc3)cc21 [XIII/140, [2-(5-phenoxypentyloxy)carbazol-9-yl]acetic acid] |  | 6.7 µM | > 19 µM
